# Experimental data: US11058635B1, “Oral administration of 5-FU in a gelling nanosuspension for targeted delivery to treat colorectal cancers” (King Abdulaziz University, priority 2020, dated 2021)
# Experiment: In vitro drug release, pH-profile dialysis bag method
# Type: physicochemical
# Conditions: for overall pH-profile percentage release more than NAH-CRG-FU by: difference over 8 hrs
# Text: The ultimate goals were to develop a formula with in-soluble gel forming ability in the gastric media with good coherence, to form a sedimented gel with a density >1 in the stomach, to increase the gastric emptying rate and to avoid the gastric adverse effects and metabolism of FU by keeping a minimal gastric release or coating it. On other hand, the formula needed to dissolve and release the drug and gel in the simulated intestinal media, especially the colonic area. The main target was to design a system that was able to inhibit release of the drug in the stomach (i.e., release at a lower rate than the release rate in the intestinal-colonic area). Formulation was prepared according to Table 2 and the pattern of 5-FU release in the pH-profile differed from that of free 5-FU. After preparation of different formulations with manipulation of NA amounts (18, 36 and 72 mg/mL) and CRG types (CRGk and CRGL), the drug release optimization confirmed that the optimum formulation with respect to FU release curve and parameters was the NAH-CRG-FU shown in Table 2 and FIG. 6. […] The comparisons between the release patterns of the NAH-CRG-FU formulation and free drug were done using the simulated gastric release percentage (%)-first 2 hrs, simulated intestinal-colonic release percentage-subsequent 6 hrs (summation of the proximal, distal intestine and colon percentage simulated release patterns), mean dissolution time (MDT) of simulated pre-intestinal region (gastric) and simulated intestine-colonic area. Furthermore, mean dissolution times for 1st 2 hrs of pre-intestinal (Pre-intestinal MDT) and from the 2nd to 8th hr of the release profile (Intestinal-colonic MDT) were obtained by the following equation (Bani-Jaber and Abdullah 2020, Costa and Lobo 2001).
# [formula] wherein (i) expressed the release sample numbers, (n) referred to the number of release times, (t) was the mid-point time in the interval (ti-1-ti), (ΔM) was the released amount of drug in the interval (ti-1-ti). The MDT larger values could indicate a slower drug release rate. The predicted rate of release equates to the rate of dissolution, and this rate has a direct effect on the number of daily oral doses and any adverse effects associated therewith.
# 5-FU was prepared in a formulation of the NAH-CGR-FU gelling nanosuspension, as described in the previous Examples. Data from Table 2 was used to prepare a nanosuspension volume of 20 mL. The dose was loaded into a dialysis bag having a cut-off of 12000-14000 Dalton (Spectra/Por® 4-Dialysis membrane, USA). The dialysis bag was placed into a beaker containing 300 mL of release media. The bags were exposed to 0.1N HCl to simulate gastric media having a pH 1.2 for 2 hr, followed by simulated proximal intestine media, which was a phosphate buffer with pH 6.5 for 2 hr. This was followed by media simulating the media of the distal area of the small intestine, which was a phosphate buffer at a pH 6.8 for 2 hr. Finally, the dialysis bags were transferred to a phosphate buffer media having a pH 8 to simulate the media of a descending colon for 2 hrs. The sequential exposure in the different pH media was used to construct a pH dissolution profile. The temperature was constantly controlled at 37±0.5° C. in a water bath shaker of 75 rpm speed. To maintain sink conditions, the dissolution media underwent total replacement with a fresh medium every hour. After drug release optimization of the NA amount and CRG type was determined, the optimum formulation in-soluble gel that was formed in the acidic media was evaluated for the onset of formation and the extent of sedimentation.
smiles,measurement,setting,value
"O=c1[nH]cc(F)c(=O)[nH]1 [Free 5-FU, 5-fluorouracil]",Gastric % Release,"0.1N HCl pH 1.2, first 2 hr, 37 C, 75 rpm",56.60 ± 0.0051%
same,higher gastric percentage release than NAH-CRG-FU by,"difference free 5-FU minus NAH-CRG-FU, first 2 hrs",31.55%
same,higher intestinal-colonic percentage release than NAH-CRG-FU by,"difference free 5-FU minus NAH-CRG-FU, subsequent 6 hrs",30.68%
same,overall pH-profile percentage release more than NAH-CRG-FU by,listed as 5-FU alone,62.23%
same,overall pH-profile percentage release more than NAH-CRG-FU by,listed as 5-FU free,62.2%
same,Pre-Intestinal MDT,"mean dissolution time, 1st 2 hrs, pH 1.2, n = 3 ± SD",0.23 ± 0.0011 h
same,Intestinal-Colonic MDT,"mean dissolution time, 2nd to 8th hr, pH 6.5, 6.8, 8, n = 3 ± SD",1.75 ± 0.0051 h
same,released after 8 hrs of the pH-profile study,"pH-profile 1.2-8, 8 hrs",95.97%
same,Proximal Intestine % Release,"phosphate buffer pH 6.5, 2 hr",23.04 ± 0.0022%
same,Distal Intestine % Release,"phosphate buffer pH 6.8, 2 hr",9.08 ± 0.0019%
same,Colon % Release,"phosphate buffer pH 8, 2 hr",7.26 ± 0.0014%
same,Intestinal-Colonic % Release,"subsequent 6 hrs, summation of proximal, distal intestine and colon",39.37 ± 0.0071%
